Assay results published in the supplement of paper PMC12137928.
Structures can show the parent of a compound that is named as a salt.

What was measured:
[1] = tested on: HCT116; details: 72 h
How it was run: (§1)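 Luminescence was read with CellTiter-Glo in HCT116 cells seeded at 250 per well in 1536-well plates. Signals were scaled between vehicle at 0% and positive control at -100%, then pattern-corrected. IC50 and maximal efficacy were obtained by fitting a four-parameter Hill equation.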

[2] = tested on: HCT116; assay: efficacy (maximum % inhibition of viability vs DMSO); higher = more cytotoxic; details: 72 h
How it was run: as §1

SMILES | IC50 cell viability ([1]; ICRF193 0 nM) | IC50 cell viability ([1]; ICRF193 200 nM) | efficacy ([2]; ICRF193 200 nM) | efficacy ([2]; ICRF193 0 nM)
CN(C)C(=S)SSC(=S)N(C)C [Thiram] | > 45.8 µM | 29.1 µM | 82.8% | –
CCCCCCCCCCCCCCCC[N+](C)(C)CCN(Cc1ccc(OC)cc1)c1ncccn1 [Thonzonium bromide] | 18.3 µM | 4.61 µM | 89.7% | 120%
CCCSc1nc(N[C@@H]2C[C@H]2c2ccc(F)c(F)c2)c2nnn([C@@H]3C[C@H](OCCO)[C@@H](O)[C@H]3O)c2n1 [Ticagrelor] | 29.1 µM | 18.3 µM | 92.6% | 77.1%
Clc1ccc(C(Cn2ccnc2)OCc2ccsc2Cl)c(Cl)c1 (centres undefined) [Tioconazole] | 20.6 µM | 18.3 µM | 91.7% | 102%
Cn1cncc1[C@@](N)(c1ccc(Cl)cc1)c1ccc2c(c1)c(-c1cccc(Cl)c1)cc(=O)n2C [Tipifarnib] | 20.6 µM | 23.1 µM | 126% | 118%
CC[C@@]1(O)C(=O)OCc2c1cc1n(c2=O)Cc2cc3c(CN(C)C)c(O)ccc3nc2-1 [Topotecan hydrochloride] | 0.73 µM | 0.206 µM | 102% | 94.2%
COc1cc2c(cc1O)CCN[C@]21CS[C@@H]2c3c(OC(C)=O)c(C)c4c(c3[C@H](COC1=O)N1[C@@H]2[C@H]2c3c(cc(C)c(OC)c3O)C[C@@H]([C@@H]1O)N2C)OCO4 [Trabectedin] | 0.0119 µM | 0.00473 µM | 74.4% | 57.2%
CC(C)OC(=O)CCC/C=C\C[C@@H]1[C@@H](/C=C/[C@@H](O)COc2cccc(C(F)(F)F)c2)[C@H](O)C[C@@H]1O [Travoprost] | 14.6 µM | 20.6 µM | 96.5% | 87.4%
Nc1nc(N)c2nc(-c3ccccc3)c(N)nc2n1 [Triamterene] | 29.1 µM | 29.1 µM | 92.7% | 95.4%
CCOC1O[C@H]([C@@H](COCc2ccccc2)OCc2ccccc2)[C@H](OCc2ccccc2)[C@H]1O (some centres undefined) [Tribenoside] | 29.1 µM | 18.3 µM | 92.1% | 106%
Oc1cc(Cl)ccc1Oc1ccc(Cl)cc1Cl [Triclosan] | 16.4 µM | 18.3 µM | 95.2% | 92.5%
O=c1[nH]c(=O)n([C@H]2C[C@H](O)[C@@H](CO)O2)cc1C(F)(F)F [Trifluridine] | 29.1 µM | 8.2 µM | 59% | 49.1%
COc1cc(NCc2ccc3nc(N)nc(N)c3c2C)cc(OC)c1OC [Trimetrexate] | 1.16 µM | 0.92 µM | 90.7% | 102%
N[C@@H]1[C@H]2CN(c3nc4c(cc3F)c(=O)c(C(=O)O)cn4-c3ccc(F)cc3F)C[C@@H]12 [Trovafloxacin mesylate] | 29.1 µM | 20.6 µM | 65.3% | 52.4%
CC[C@H]1OC(=O)C[C@@H](OC(C)=O)[C@H](C)[C@@H](O[C@@H]2O[C@H](C)[C@@H](O[C@H]3C[C@@](C)(O)[C@@H](OC(=O)CC(C)C)[C@H](C)O3)[C@H](N(C)C)[C@H]2O)[C@@H](CC=O)C[C@@H](C)C(=O)/C=C/C(C)=C/[C@@H]1CO[C@@H]1O[C@H](C)[C@@H](O)[C@@H](OC)[C@H]1OC [Tylvalosin] | > 45.8 µM | 18.3 µM | 53.7% | –
CCCCCCCC(=O)CC[C@@H]1[C@@H](C/C=C\CCCC(=O)OC(C)C)[C@@H](O)C[C@H]1O [Unoprostone isopropyl ester] | > 45.8 µM | 18.3 µM | 42.2% | –
CCCCC(=O)O [Valeric acid] | > 45.8 µM | 29.1 µM | 62% | –
CCCCC(=O)OCC(=O)[C@]1(O)Cc2c(O)c3c(c(O)c2[C@@H](O[C@H]2C[C@H](NC(=O)C(F)(F)F)[C@H](O)[C@H](C)O2)C1)C(=O)c1c(OC)cccc1C3=O [Valrubicin] | 3.66 µM | 2.31 µM | 97.8% | 90.1%
c1cnc2cc3c(cc2n1)[C@@H]1CNC[C@H]3C1 [Varenicline tartrate] | > 45.8 µM | 29.1 µM | 80.4% | –
CC[C@]1(O)C[C@H]2CN(CCc3c([nH]c4ccccc34)[C@@](C(=O)OC)(c3cc4c(cc3OC)N(C=O)[C@H]3[C@@](O)(C(=O)OC)[C@H](OC(C)=O)[C@]5(CC)C=CCN6CC[C@]43[C@@H]65)C2)C1 [Vincristine] | 0.164 µM | 0.183 µM | 63.5% | 70.2%
[O-][n+]1ccccc1[S-].[O-][n+]1ccccc1[S-].[Zn+2] [Zinc pyrithione] | 4.61 µM | 2.06 µM | 102% | 107%

Continued, in another order:

IC50 cell viability ([1]; ICRF193 0 nM) | IC50 cell viability ([1]; ICRF193 200 nM) | SMILES | efficacy ([2]; ICRF193 200 nM) | efficacy ([2]; ICRF193 0 nM)
> 45.8 µM | 18.3 µM | O=C(CCCN1CCC(n2c(=S)[nH]c3ccccc32)CC1)c1ccc(F)cc1 [Timiperone] | 46.1% | –
29.1 µM | 29.1 µM | CC(C)C(=O)OCc1cccc(OC(=O)[C@@H]2N3C(=O)[C@@H](NC(=O)Cc4ccccc4)[C@H]3SC2(C)C)c1 [Tobicillin] | 103% | 122%
8.96 µM | 8.96 µM | Cc1[nH]c(/C=C2\C(=O)Nc3ccc(F)cc32)c(C)c1C(=O)NCCN1CCCC1 [Toceranib] | 94.9% | 102%
> 45.8 µM | 29.1 µM | Cc1ccc(C(=O)c2cc(O)c(O)c([N+](=O)[O-])c2)cc1 [Tolcapone] | 84.9% | –
7.3 µM | > 45.8 µM | Cc1cc(-n2c(=O)[nH]c(=O)n(C)c2=O)ccc1Oc1ccc(S(=O)(=O)C(F)(F)F)cc1 [Toltrazuril (sulfone)] | – | 44.9%
20.6 µM | 29.1 µM | CN(C)CCOc1ccc(/C(=C(/CCCl)c2ccccc2)c2ccccc2)cc1 [Toremifene citrate] | 104% | 128%
0.259 µM | 0.0206 µM | CC(=O)Nc1cccc(-n2c(=O)n(C3CC3)c(=O)c3c(Nc4ccc(I)cc4F)n(C)c(=O)c(C)c32)c1 [Trametinib] | 82.8% | 92.3%
18.3 µM | 13 µM | O=C(Nc1ccc(Cl)cc1)Nc1ccc(Cl)c(Cl)c1 [Triclocarban] | 104% | 102%
16.4 µM | 18.3 µM | CC(CN(C)C)CN1c2ccccc2Sc2ccc(C(F)(F)F)cc21 (centres undefined) [Trifluomeprazine 2-butenedioate] | 49.5% | 40.2%
0.082 µM | 0.058 µM | CC[C@]1(O)C[C@@H]2CN(CCc3c([nH]c4ccccc34)[C@@](C(=O)OC)(c3cc4c(cc3OC)N(C)[C@H]3[C@@](O)(C(=O)OC)[C@H](OC(C)=O)[C@]5(CC)C=CCN6CC[C@]43[C@@H]65)C2)C1 [Vinblastine sulfate] | 82.2% | 75.8%
0.058 µM | 0.058 µM | CC[C@]1(O)C[C@@H]2CN(CCc3c([nH]c4ccccc34)[C@@](C(=O)OC)(c3cc4c(cc3OC)N(C)[C@H]3[C@@](O)(C(N)=O)[C@H](O)[C@]5(CC)C=CCN6CC[C@]43[C@@H]65)C2)C1 [Vindesine sulfate salt] | 69.2% | 75.5%
0.73 µM | > 45.8 µM | CC[C@]12C=CCN3CC[C@@]4(c5cc([C@@]6(C(=O)OC)C[C@@H]7C[C@@H](C(C)(F)F)CN(Cc8c6[nH]c6ccccc86)C7)c(OC)cc5N(C)[C@H]4[C@@](O)(C(=O)OC)[C@@H]1OC(C)=O)[C@@H]32 [Vinflunine (Tartrate)] | – | 60.1%
0.0651 µM | 0.058 µM | CCC1=C[C@@H]2CN(C1)Cc1c([nH]c3ccccc13)[C@@](C(=O)OC)(c1cc3c(cc1OC)N(C)[C@H]1[C@@](O)(C(=O)OC)[C@H](OC(C)=O)[C@]4(CC)C=CCN5CC[C@]31[C@@H]54)C2 [Vinorelbine tartrate] | 72.3% | 64.9%
3.66 µM | 2.31 µM | O=C(CCCCCCC(=O)Nc1ccccc1)NO [Vorinostat (SAHA)] | 101% | 109%
23.1 µM | 20.6 µM | O[C@@H](COc1cccc2ncccc12)CN1CCN([C@@H]2c3ccccc3[C@@H]3[C@H](c4ccccc42)C3(F)F)CC1 [Zosuquidar trihydrochloride] | 105% | 141%
25.9 µM | 16.4 µM | OCCN1CCN(CC/C=C2/c3ccccc3Sc3ccc(C(F)(F)F)cc32)CC1 [cis-Flupentixol] | 102% | 119%
